Measurements as given in paper PMC4978465 (Nature, 2015).

Tests used:
[1] = target: T1, BT3775 (Bacteroides thetaiotaomicron, UniProt Q8A191); experiment: HPAEC, MALDI-TOF, linkage analysis; type: biochemical; conditions: 10 mM MnCl2, pH 7.5, 37 °C
T1 sequence (Q8A191 1-224): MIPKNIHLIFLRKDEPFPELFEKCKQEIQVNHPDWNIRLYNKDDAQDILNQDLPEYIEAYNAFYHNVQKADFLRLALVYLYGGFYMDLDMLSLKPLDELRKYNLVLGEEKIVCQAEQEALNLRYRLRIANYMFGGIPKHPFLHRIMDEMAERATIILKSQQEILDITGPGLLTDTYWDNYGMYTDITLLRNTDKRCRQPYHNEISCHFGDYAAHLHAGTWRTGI

[2] = target: T2, BxGH99 (Bacteroides xylanisolvens, UniProt D6D1V7); experiment: X-ray crystal structure; type: binding; conditions: crystal soak about 10 mM
T2 sequence (D6D1V7 13-380): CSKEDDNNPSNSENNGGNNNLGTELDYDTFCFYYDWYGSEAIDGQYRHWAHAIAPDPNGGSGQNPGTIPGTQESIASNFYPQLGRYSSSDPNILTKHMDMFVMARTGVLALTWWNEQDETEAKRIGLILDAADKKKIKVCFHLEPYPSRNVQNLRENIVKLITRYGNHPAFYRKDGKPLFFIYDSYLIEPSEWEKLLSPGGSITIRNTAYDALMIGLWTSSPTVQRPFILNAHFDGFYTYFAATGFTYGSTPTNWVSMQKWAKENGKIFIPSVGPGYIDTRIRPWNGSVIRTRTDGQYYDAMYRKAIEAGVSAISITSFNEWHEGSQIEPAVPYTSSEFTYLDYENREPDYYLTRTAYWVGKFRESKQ

For `Nc1nc2c(ncn2[C@@H]2O[C@H](COP(=O)(O)OP(=O)(O)O[C@H]3O[C@H](CO)[C@@H](O)[C@H](O)[C@@H]3O)[C@@H](O)[C@H]2O)c(=O)[nH]1` [GDP-Mannose], the “HPAEC, MALDI-TOF, linkage analysis” value ([1]; acceptor mannose) was “using mannose as an acceptor and GDP-α-Man as the donor”.
In the case of `OC[C@H]1CNC[C@@H](O[C@H]2O[C@H](CO)[C@@H](O)[C@H](O)[C@@H]2O)[C@@H]1O` [Man-IFG], the X-ray crystal structure ([2]; ternary complex with alpha-1,2-mannobiose) was “ternary with Man-IFG and α-1,2-mannobiose, was achieved by soaking native BxGH99 crystals”.
`OC[C@H]1OC(O)[C@@H](O)[C@@H](O)[C@@H]1O` (stereo partly shown) [mannose] was tested, and the “HPAEC, MALDI-TOF, linkage analysis” value ([1]; donor GDP-mannose) was “mannobiose produced by BT3775 from mannose”.
With `OC[C@H]1O[C@H](O[C@@H]2C(O)O[C@H](CO)[C@@H](O)[C@@H]2O)[C@@H](O)[C@@H](O)[C@@H]1O` (stereo partly drawn) [α-1,2-mannobiose] the X-ray crystal structure ([2]; ternary complex with Man-IFG) was “ternary with Man-IFG and α-1,2-mannobiose, was achieved by soaking native BxGH99 crystals”.
